# Measurements from patent US20260356849A1, “COMPOUNDS AND METHODS FOR TREATING CANCERS” (CEDARS-SINAI MEDICAL CENTER, priority 2022, published 2026).
# pIC50, pKd: −log10 of the molar value. “Also recorded” adds a separate entry of the source.
# Legend:
# [1] = system: non-malignant (HEK293, AML12) cells; assay: EdU/MTT growth assay in non-malignant cells; format: cell-based; settings: 10 μM, 24 hours
# Description: (§1) The inventors identified nine inhibitors and perfomed an EdU assay after treating non-malignant (HEK293, AML12) and malignant (HepG2, MzChA-1, HT-29, RKO) cells with varying concentrations of GIT1 inhibitor for 24 hours (results are mean±SE from 3 independent experiments done in duplicates, *p<0.05 vs. DMSO). An MTT assay was also performed after treating primary human and mouse hepatocytes and liver and colon cancer cells with varying concentrations of GIT1 inhibitor for 24 hours (results are mean±SE from 3 independent experiments done in duplicates, *p<0.05 vs. DMSO). […] Percoll may be used to remove dead human hepatocytes.
# RKO cells [2] = assay: Clonogenic assay RKO; format: cell-based, human; settings: 1 μM, 24 hours then drug free medium 10-20 days; dose dependent
# Description: RKO, HepG2, and AML12 cells were treated with 1-10 μM compound C3 for 24 hours and maintained in drug free medium for 10-20 days.
# RKO cells [3] = assay: Annexin V-FITC/propidium iodide assay RKO; format: cell-based, human; settings: 5 μM, 24-48 hours
# Description: (§2) FIG. 8 depicts, in accordance with various embodiments of the invention, results of an annexin V-FITC/propidium iodide binding assay performed in human and mouse hepatocytes, AML12, HEK293, HepG2, and RKO cells after treatment with 5 μM of a GIT1 inhibitor or DMSO for 24-48 hours (results are shown as mean±SE from at least 3 experiments. *p<0.05 vs. DMSO).
# (§3) An annexin V-FITC/propidium iodide (PI) binding assay was performed with flow cytometry. […] Both G2/M arrest and cell death are mechanisms by which compound C3 inhibits cancer cells' growth.
# GIT1-GFP = GIT1-GFP (Homo sapiens, UniProt Q9Y2X7); assay: MST binding to GIT1-GFP
# HepG2 cells [4] = assay: MTT assay in HepG2 cells; format: cell-based; settings: Homo sapiens
# Description: as §1
# HEK293 cells = assay: Cell cycle flow cytometry HEK293; format: cell-based; settings: 1-5 μM, 24 hours
# GIT2-GFP = GIT2-GFP (Homo sapiens, UniProt Q14161); assay: MST binding to GIT2-GFP
# Toxicity in C57/BL6 mice = settings: mouse, in vivo
# [5] = biological target: GIT1-cyclin B1 interaction (Homo sapiens, UniProt Q9Y2X7); assay: Co-IP GIT1-cyclin B1 interaction in HepG2; format: cell-based; settings: HepG2, 10 μM, 24 h
# Description: HepG2 cells were treated with compound C3 at 10 μM for 24 h and subjected to co-IP with anti-GIT1 or anti-cyclin B1 and blotted for cyclin B1 and GIT1, ratios of cyclin B1 bound to GIT1 vs. DMSO control are shown, *p<0.05 vs. DMSO from n=3 (FIG. 38B).
# In vitro translated GIT1, recombinant MAT2B, and cyclin B1 (both 0.5 μg) were used to evaluate their direct binding, as shown in the blots of FIG. 18A. Also shown, is the results of (FIG. 18B) treating HepG2 cells with a GIT1 inhibitor at 10 μM for 24 hours and subjected to co-IP with anti-GIT1 or cyclin B1 antibody and immunoblotted for cyclin BI and GIT1. In vitro translated GIT1, recombinant MAT2B, and cyclin B1 (both 0.5 μg) were used to evaluate their direct binding. The ratio of cyclin BI bound to GIT1 was compared to DMSO control.
# CyclinB1 = assay: Cyclin B1 expression by RT-PCR, Western blotting and CHX in HepG2; format: cell-based
# Description: HepG2 cells were treated with DMSO or compound C3 (2-5 μM) for 24 hours. […] Numbers shown below are mean±SE densitometric values.
# MEK and ERK activity [6] = assay: Western blot ERK and MEK activity in AML12 cells; format: cell-based; settings: 2-10 μM, 24 hours
# RKO cells [7] = assay: MTT assay in RKO cells; format: cell-based; settings: Homo sapiens
# Description: as §1
# MEK and ERK activity [8] = assay: Western blot ERK and MEK activity in RKO cells; format: cell-based, human; settings: 2-10 μM, 24 hours
# mouse hepatocytes = assay: Annexin V-FITC/propidium iodide assay mouse hepatocytes; format: cell-based; settings: 5 μM, 24-48 hours
# Description: as §2, §3
# HepG2 cells [9] = assay: Annexin V-FITC/propidium iodide assay HepG2; format: cell-based; settings: 5 μM, 24-48 hours
# Description: as §2, §3
# MC38 cells = assay: MC38 CRC liver metastasis (CRLM) model in immune competent mice; format: in vivo
# Description: FIG. 40A-FIG. 40E depicts, in accordance with various embodiments of the invention, compound C3 inhibits CRC liver metastasis in immune competent mice. MC38 cells (2.5×10^5) stably expressing luciferase where injected intrasplenically followed by splenectomy. 7 days later compound C3 (20 mg/kg on day 1 sinc MC38 grows rapidly, then 15 mg/kg daily×3 days, rest for 2 days, then 15 mg/kg×2 days) or DMSO were given ip. Small animal imaging (FIG. 40A). H&E of tumors (FIG. 40B). Luciferase intensity at various time points (FIG. 40C). Gross pictures of the livers at day 9 (FIG. 40D), ALT and AST levels after above, or compound C3 (15 mg/kg/d for 21 days), *p<0.05 vs. DMSO (FIG. 40E).
# Compound C3 powder was dissolved in pure DMSO at 50 mg/ml, as a stock store in-80 °C. Stock solution was dissolved in 200 μl 0.9% saline to reach 15 mg/kg. For control group, DMSO was dissolved in 200 μl saline to achieve a concentration of DMSO in saline of 4.5%. MC38 cells (2.5×105) stably expressing luciferase were injected intrasplenically followed by splenectomy (CRLM model). Seven days later, Compound C3 (20 mg/kg on day 1, then 15 mg/kg daily ×3 days, rest for 2 days, then 15 mg/kg×2 days) or DMSO were administered ip.
# [10] = system: MEK1/2 interaction with GIT1, Raf, and ERK; assay: Co-IP anti-MEK1/2 in HepG2 and RKO cells; format: cell-based; settings: 10 μM, 24 hours
# From the text: GIT1-MAT2B scaffold complex sequesters and activates RAS/RAF/MEK/ERK signaling.
# Sequence of GIT1-GFP (Q9Y2X7 1-770 isoform Q9Y2X7-3): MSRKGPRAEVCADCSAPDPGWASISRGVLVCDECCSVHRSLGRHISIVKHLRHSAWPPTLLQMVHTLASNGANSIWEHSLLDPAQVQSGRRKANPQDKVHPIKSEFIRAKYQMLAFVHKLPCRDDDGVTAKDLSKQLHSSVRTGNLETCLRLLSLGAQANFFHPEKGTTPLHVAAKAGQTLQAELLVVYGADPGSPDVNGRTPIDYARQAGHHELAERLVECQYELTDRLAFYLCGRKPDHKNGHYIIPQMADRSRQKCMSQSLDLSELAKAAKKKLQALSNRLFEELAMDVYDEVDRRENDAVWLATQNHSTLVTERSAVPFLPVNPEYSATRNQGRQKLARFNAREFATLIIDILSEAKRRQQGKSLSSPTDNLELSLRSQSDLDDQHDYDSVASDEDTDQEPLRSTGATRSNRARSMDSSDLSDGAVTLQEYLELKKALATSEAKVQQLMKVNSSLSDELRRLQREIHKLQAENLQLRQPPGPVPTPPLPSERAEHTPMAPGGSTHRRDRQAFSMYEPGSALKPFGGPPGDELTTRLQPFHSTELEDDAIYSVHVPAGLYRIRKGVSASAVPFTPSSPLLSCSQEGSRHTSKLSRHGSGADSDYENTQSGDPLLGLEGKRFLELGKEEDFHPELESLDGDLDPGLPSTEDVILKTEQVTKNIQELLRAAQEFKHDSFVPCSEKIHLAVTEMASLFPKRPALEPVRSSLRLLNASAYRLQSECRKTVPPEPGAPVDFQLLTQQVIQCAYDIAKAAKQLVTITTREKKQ
# Sequence of GIT1-cyclin B1 interaction (Q9Y2X7 whole entry): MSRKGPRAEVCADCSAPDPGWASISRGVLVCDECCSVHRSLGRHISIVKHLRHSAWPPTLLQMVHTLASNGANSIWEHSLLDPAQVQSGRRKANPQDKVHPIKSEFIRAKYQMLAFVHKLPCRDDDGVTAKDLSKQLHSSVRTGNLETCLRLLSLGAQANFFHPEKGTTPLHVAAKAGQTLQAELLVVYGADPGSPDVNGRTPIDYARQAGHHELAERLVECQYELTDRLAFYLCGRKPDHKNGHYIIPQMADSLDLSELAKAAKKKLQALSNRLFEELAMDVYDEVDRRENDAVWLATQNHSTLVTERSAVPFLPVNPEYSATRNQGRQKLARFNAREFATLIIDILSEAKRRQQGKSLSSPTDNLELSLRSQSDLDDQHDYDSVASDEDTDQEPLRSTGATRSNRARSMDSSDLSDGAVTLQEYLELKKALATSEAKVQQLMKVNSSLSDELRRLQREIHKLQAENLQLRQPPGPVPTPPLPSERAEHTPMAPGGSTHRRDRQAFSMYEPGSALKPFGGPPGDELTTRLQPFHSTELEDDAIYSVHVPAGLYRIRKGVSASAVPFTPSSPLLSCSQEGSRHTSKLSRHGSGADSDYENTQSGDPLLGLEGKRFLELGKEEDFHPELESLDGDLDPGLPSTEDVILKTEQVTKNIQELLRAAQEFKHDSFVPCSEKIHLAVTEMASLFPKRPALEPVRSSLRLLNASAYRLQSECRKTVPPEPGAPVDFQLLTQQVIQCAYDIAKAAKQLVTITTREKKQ
# Sequence of GIT2-GFP (Q14161 whole entry): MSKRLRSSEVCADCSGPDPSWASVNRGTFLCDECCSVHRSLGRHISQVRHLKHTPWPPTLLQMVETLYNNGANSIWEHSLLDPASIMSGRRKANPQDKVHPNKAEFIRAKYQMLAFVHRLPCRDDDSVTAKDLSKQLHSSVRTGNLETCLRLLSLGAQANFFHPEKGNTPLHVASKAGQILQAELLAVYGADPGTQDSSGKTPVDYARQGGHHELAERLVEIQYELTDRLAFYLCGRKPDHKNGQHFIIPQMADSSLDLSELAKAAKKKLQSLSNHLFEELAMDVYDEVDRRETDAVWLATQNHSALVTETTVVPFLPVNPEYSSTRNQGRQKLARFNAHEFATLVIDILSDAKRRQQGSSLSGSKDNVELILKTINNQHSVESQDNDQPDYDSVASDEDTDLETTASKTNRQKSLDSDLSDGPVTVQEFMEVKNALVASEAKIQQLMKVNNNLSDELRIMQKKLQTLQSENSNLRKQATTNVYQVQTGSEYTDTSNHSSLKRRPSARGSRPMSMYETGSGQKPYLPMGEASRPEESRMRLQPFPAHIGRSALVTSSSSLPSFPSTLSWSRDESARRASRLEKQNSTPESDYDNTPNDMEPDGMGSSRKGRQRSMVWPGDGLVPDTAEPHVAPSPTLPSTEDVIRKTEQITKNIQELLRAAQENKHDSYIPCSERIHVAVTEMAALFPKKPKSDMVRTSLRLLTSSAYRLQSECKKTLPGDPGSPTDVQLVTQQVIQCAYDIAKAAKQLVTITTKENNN
smiles,measurement,setting,value
"CC1(C)Cc2nc3sc4c(=O)n(CC(=O)NCc5ccco5)cnc4c3cc2CO1 [Compound C3, 2-(8,8-Dimethyl-4-oxo-7,10-dihydro-8H-pyrano[3″,4″: 5′,6′]pyrido[3′,2′: 4,5]thieno[3,2-d]pyrimidin-3 (4H)-yl)-N-(2-furylmethyl) acetamide]",cytotoxicity in non-malignant cells,[1],not in non-malignant cells
same,"clonogenic potential, RKO",RKO cells [2],inhibited the clonogenic potential
same,"apoptosis, RKO",RKO cells [3],significant apoptosis
same,pKd,GIT1-GFP,5.21
same,binding to GIT1-GFP,GIT1-GFP,binds to GIT1-GFP
same,pIC50,HepG2 cells [4],~4.70
same,"G2/M arrest, HEK293",HEK293 cells,did not occur
same,binding to GIT2-GFP,GIT2-GFP,not GIT2-GFP
same,toxicity in C57/BL6 mice,Toxicity in C57/BL6 mice,no toxicity
same,GIT1-cyclin B1 interaction,[5],promotes their interaction; also recorded: enhances GIT1-cyclin BI interaction
same,CyclinB1 content,CyclinB1,increases CyclinB1 content; also recorded: led to cyclin B1 accumulation
same,CyclinB1 mRNA level,"CyclinB1; HepG2, 2-5 μM, 24 hours",increases CyclinB1 mRNA level
same,CyclinB1 protein degradation,"CyclinB1; HepG2, cycloheximide, 5 μM",inhibits its protein degradation
same,CyclinB1 phosphorylation,CyclinB1; associated with nuclear accumulation,promotes CyclinB1 phosphorylation
same,"ERK and MEK activities, AML12",MEK and ERK activity [6],not in AML12 cells
same,pIC50,RKO cells [7],~4.70
same,"ERK and MEK activities, RKO",MEK and ERK activity [8],lower
same,"cell death, mouse hepatocytes",mouse hepatocytes,does not induce cell death
same,"apoptosis, HepG2",HepG2 cells [9],significant apoptosis
same,"necrosis, HepG2",HepG2 cells [9],significant necrosis
same,"tumor growth, liver metastasis","MC38 cells; ip 20 mg/kg day 1, 15 mg/kg daily ×3 days, rest 2 days, 15 mg/kg×2 days",Tumor growth was inhibited
same,toxicity,"MC38 cells; ip 20 mg/kg day 1, then 15 mg/kg, ALT and AST",without toxicity
same,RAF/MEK/ERK recruitment,[10],reduced RAF/MEK/ERK recruitment
